From ChEMBL document CHEMBL1201862, “PubChem BioAssay data set” (2004)
The source made the active and inactive calls.

What was measured:
Cytochrome P450 2C9 = Cytochrome P450 2C9 (Homo sapiens, UniProt P11712)
Cytochrome P450 3A4 = Cytochrome P450 3A4 (Homo sapiens, UniProt P08684);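 note: CYP3A4 tested as one member of a cytochrome P450 panel screen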
Troponin, cardiac muscle = Troponin, cardiac muscle (Homo sapiens, UniProt P19429+P45379+P63316); test: Fluorescence-based biochemical high throughput dose response assay for activators of the calcium sensitivity of cardiac Regulated Thin Filaments (RTF). [Related pubchem assays (depositor defined):AID493008, AID493018, AID504382, AID504383]; type: protein-complex assay
[1] = Luminescence Cell-Based Dose Response HTS to Identify Activators of Luciferase Translation or Activity in H4 […] Cells. [Related pubchem assays: 1829 (Project Summary), 1814 (Primary HTS)]; type: functional
H4 = test: Luminescence Cell-Based Dose Response HTS to Identify Activators of 5'UTR Stem-Loop Driven Prion Protein mRNA Translation in H4 Neuroglioblastoma Cells. [Related pubchem assays: 1829 (Project Summary), 1814 (Primary HTS)]; type: functional; conditions: Homo sapiens
HeLa = test: HeLa cell cytotoxicity, dose response, cytotoxicity control for MITF activator project, CellTiter-Glo luminescence, cherry-pick samples (AID 540259); type: functional, cell-based; conditions: Homo sapiens
[2] = biological target: Glyceraldehyde-3-phosphate dehydrogenase (Homo sapiens, UniProt P04406)
[3] = biological target: T1, Alkaline phosphatase, tissue-nonspecific isozyme (Homo sapiens, UniProt P05186); test: human TNAP enzyme inhibitors, SAR follow-up, biochemical, luminescent, dose response (AID 1056)
T1 sequence (P05186 whole entry): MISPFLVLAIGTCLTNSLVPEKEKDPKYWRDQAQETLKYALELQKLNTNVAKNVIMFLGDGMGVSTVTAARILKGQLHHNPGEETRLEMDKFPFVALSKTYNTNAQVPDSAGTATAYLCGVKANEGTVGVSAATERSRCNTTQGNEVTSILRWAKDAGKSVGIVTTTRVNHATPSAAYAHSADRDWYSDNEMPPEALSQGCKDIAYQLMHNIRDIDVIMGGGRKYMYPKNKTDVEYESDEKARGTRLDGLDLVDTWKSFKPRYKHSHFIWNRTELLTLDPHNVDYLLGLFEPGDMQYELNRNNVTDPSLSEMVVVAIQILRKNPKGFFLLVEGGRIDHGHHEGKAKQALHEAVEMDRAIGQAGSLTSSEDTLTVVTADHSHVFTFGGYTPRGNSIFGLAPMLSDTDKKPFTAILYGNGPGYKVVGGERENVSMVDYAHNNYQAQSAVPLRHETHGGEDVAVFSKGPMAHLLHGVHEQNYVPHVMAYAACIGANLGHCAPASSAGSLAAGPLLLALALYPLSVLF

Vero = test: cells; type: functional; conditions: Chlorocebus sabaeus
[4] = A549 cell cytotoxicity, dose response, cytotoxicity control, plate reader, cherry-pick, antagonist series (AID 743412); type: functional, cell-based
[5] = HepG2 cell cytotoxicity, dose response, cytotoxicity control, plate reader, cherry-pick, antagonist series (AID 743416); type: functional, cell-based
[6] = LGR2 antagonists, dose response, cell-based, HEK293, CRE-luciferase reporter, cherry pick, set 2 (AID 743343); type: functional;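 note: transfected cells were stimulated with diluted bursicon conditioned medium after compound addition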
[7] = MC4R antagonists, dose response, counter-screen for LGR2 antagonist project, cell-based, plate reader, cherry pick (AID 743444); type: functional;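 note: transfected HEK 293 cells stimulated with alpha-MSH peptide; potency of inhibitors of the alpha-MSH evoked signal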
[8] = HEK293 cell cytotoxicity, dose response, cytotoxicity control, plate reader, cherry-picked samples (AID 743446); type: functional, cell-based
[9] = A cytotoxicity screen of small molecule inhibitors of the PhoP region in Salmonella typhi identified in the primary screen. [Related pubchem assays: 1850, 1864, 1985 ]; type: functional
[10] = biological target: T2, Replicative DNA helicase DnaB (Mycobacterium tuberculosis, UniProt P9WMR3); test: DnaB intein splicing inhibitors, dose response, biochemical, cell-free fluorescence (AID 449749); type: functional
T2 sequence (P9WMR3 whole entry): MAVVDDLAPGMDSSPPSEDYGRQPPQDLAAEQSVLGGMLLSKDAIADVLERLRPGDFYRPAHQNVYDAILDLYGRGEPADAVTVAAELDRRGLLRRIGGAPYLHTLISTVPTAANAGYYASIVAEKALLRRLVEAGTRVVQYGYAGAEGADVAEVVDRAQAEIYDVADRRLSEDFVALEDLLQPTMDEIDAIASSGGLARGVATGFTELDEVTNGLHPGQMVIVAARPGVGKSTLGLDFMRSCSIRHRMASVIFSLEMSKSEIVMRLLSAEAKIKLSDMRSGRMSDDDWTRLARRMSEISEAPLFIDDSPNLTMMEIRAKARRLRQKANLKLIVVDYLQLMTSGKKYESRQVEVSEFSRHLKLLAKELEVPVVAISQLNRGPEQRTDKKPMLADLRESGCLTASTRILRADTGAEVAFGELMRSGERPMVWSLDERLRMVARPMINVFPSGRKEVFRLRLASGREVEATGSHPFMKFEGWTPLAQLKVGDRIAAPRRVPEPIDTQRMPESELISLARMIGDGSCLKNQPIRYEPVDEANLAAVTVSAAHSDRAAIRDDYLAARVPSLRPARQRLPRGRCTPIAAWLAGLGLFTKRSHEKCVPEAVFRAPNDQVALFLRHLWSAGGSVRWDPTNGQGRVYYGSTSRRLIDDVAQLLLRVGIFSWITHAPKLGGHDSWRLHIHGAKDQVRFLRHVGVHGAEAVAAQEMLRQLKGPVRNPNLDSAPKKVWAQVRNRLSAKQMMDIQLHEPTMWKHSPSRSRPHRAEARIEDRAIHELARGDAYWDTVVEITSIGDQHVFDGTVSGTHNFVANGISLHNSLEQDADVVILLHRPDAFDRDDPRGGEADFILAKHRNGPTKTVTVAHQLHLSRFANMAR

Protein RecA = biological target: T3, Protein RecA (Mycobacterium tuberculosis, UniProt P9WHJ3); test: Fluorescence Cell-Free Homogeneous Dose Retest to Identify Inhibitors of RecA-Intein Splicing Activity. [Related pubchem assays (depositor defined):AID2097, AID2223, AID489010, AID492950]; type: functional
T3 sequence (P9WHJ3 whole entry): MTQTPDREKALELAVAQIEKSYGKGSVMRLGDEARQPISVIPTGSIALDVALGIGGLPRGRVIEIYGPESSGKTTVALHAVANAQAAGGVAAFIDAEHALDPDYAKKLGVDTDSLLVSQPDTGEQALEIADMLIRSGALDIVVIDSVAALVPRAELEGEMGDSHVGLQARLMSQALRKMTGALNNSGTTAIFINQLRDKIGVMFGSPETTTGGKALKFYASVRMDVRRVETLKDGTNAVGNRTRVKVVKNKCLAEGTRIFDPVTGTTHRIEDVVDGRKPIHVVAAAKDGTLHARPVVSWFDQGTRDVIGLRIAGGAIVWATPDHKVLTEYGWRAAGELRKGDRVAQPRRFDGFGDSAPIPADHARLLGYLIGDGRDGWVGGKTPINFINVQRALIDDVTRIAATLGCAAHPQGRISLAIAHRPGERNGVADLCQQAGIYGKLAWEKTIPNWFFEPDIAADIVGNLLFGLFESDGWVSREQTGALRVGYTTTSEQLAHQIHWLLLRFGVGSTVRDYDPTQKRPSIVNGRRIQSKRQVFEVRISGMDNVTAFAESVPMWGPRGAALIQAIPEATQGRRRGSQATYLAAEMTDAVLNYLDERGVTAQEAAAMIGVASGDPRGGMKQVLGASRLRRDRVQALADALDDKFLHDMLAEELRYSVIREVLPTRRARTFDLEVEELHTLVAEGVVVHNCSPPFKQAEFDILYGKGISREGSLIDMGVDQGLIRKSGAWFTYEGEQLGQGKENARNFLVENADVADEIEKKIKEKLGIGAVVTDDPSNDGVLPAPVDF

[11] = biological target: T4, Ubiquitin-conjugating enzyme E2 N (Homo sapiens, UniProt P61088); type: functional;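 note: Dose-response confirmation in a TR-FRET assay detecting UBC13-driven polyubiquitin chain formation, inhibition measured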
T4 sequence (P61088 whole entry): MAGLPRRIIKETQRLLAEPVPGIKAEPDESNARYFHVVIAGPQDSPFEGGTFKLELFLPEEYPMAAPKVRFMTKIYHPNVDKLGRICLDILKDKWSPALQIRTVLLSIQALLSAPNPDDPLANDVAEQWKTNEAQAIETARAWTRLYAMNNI

HEK293 = test: inhibitors of LMP1-driven NF-kB reporter, dose response, cell-based, HEK293, luciferase, cherry-pick (AID 588343); type: functional; conditions: Homo sapiens
[12] = Luminescence Cell-Based Dose Retest to Confirm Inhibitors of Cancer Stem Cells. [Related pubchem assays (depositor defined):AID2717, AID2721]; type: functional; conditions: Homo sapiens
[13] = biological target: T5, Microphthalmia-associated transcription factor (Homo sapiens, UniProt O75030); test: TRPM1 promoter luciferase signal decrease, dose response, MITF inhibitor project, cell-based, SK-MEL-5, cherry-picked, set 3 (AID 493073); type: functional
T5 sequence (O75030 whole entry): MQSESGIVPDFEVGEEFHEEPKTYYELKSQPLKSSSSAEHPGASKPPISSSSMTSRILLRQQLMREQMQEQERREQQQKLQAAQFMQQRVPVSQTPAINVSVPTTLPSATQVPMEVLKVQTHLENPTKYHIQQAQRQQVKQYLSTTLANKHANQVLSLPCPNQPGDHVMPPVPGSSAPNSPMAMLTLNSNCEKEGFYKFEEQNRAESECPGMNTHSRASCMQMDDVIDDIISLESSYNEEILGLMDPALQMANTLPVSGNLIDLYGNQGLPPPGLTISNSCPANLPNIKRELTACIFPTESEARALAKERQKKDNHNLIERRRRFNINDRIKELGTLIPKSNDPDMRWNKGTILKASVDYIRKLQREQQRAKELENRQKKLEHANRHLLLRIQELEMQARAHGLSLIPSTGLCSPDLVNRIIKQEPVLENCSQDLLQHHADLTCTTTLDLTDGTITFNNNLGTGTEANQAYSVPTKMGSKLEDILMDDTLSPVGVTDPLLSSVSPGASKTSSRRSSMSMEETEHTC

[14] = inhibitors of intracellular T. cruzi replication, confirmation, NIH3T3 host cells, beta-gal luminescence (AID 2044); type: functional, cell-based;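 note: intracellular parasites grown in NIH/3T3 mouse fibroblasts as host cells; luminescent beta-galactosidase reporter signal from transgenic T. cruzi replicating inside host cells; inhibitors lower the luminescence signal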
[15] = cytotoxicity toward NIH3T3 fibroblasts, dose response, counter-screen, cell-based, ATP luminescence, mouse fibroblasts (AID 2010); type: functional;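 note: cells exposed to compound for about 90 hours before reading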

Cn1c(=N)c(S(=O)(=O)c2ccc(F)cc2)cc2c(=O)n3ccccc3nc21
AC50 (Cytochrome P450 2C9): 17.8 µM (inconclusive)
AC50 (Cytochrome P450 3A4): inconclusive

Cc1ccccc1-n1nnnc1SCC(C)C
EC50 (Troponin, cardiac muscle): > 71.5 µM (inactive)

Cn1c(C(=O)NCCc2c[nH]c3ccccc23)cc2sccc21
EC50 [1]: 21.7 µM (active)
EC50 (H4): 14.7 µM (active)
AC50 (HeLa): 239 µM (active)

COc1ccc(S(=O)(=O)Nc2cnc3ccccc3c2)cc1OC
IC50 [2]: > 100 µM (not active)
IC50 [3]: > 100 µM (inactive)

O=C(Cc1nc2ccccc2[nH]1)c1cccc([N+](=O)[O-])c1
CC50 (Vero): 6.19 µM (active)
AC50 [4]: 20.7 µM (active)
AC50 [5]: 11.2 µM (active)
AC50 [6]: 4.47 µM (active)
AC50 [7]: 5.45 µM (active)
AC50 [8]: 12.1 µM (active)

CC(=O)NCCn1c(SCc2ccccc2C)nc2ccccc2c1=O
EC50 [9]: > 50 µM (active)
AC50 [10]: 28.4 µM (active)
EC50 (Protein RecA): 83.2 µM (active)

Cn1c2ccccc2c(=O)c2ccc(-c3ccc4c(c3)OCO4)cc21
AC50 (HeLa): 46.6 µM (active)

O=C(CCNc1ccccc1)c1ccc2c(c1)OCO2
AC50 (HeLa): 111 µM (active)

COc1ccc(C[C@@H]2CN3C(=NC[C@@H]3Cc3ccc(O)cc3)N2C[C@H](C)NC(=O)CCC2CCCCC2)cc1
IC50 [11]: > 20 µM (inactive)

COC(=O)N1CCC2(CC1)CCN(c1ncccn1)CC2
AC50 (Cytochrome P450 3A4): inconclusive

CCC(C(=O)NC1CCCC1)N(C(=O)c1snc(C(N)=O)c1N)c1ccc(OC)cc1 (configuration not stated)
IC50 [11]: > 20 µM (inactive)

Cc1ccc(-c2cc(C(=O)O)[nH]n2)cc1C
IC50 [2]: > 100 µM (not active)
IC50 [3]: 62.9 µM (active)

N#Cc1c(NC(=O)CCCC(=O)O)sc2c1CCCCC2
AC50 (HEK293): 4.36 µM (active)

CC1=NN(c2ccccc2)C(=O)/C1=C/C=C/c1ccccc1
AC50 [12]: 2.41 µM (active)
CC50 (Vero): 11.3 µM (active)

COc1ccccc1-c1nnc(SCc2nc3ccccc3s2)n1C
EC50 (Troponin, cardiac muscle): > 71.5 µM (inactive)

CC1CCC(NC(=O)c2cc3ccccc3cc2O)CC1 (configuration not stated)
AC50 (HeLa): 35.2 µM (active)

COc1ccc(CCNC(=O)COC(=O)c2cc(=O)[nH]c3ccccc23)cc1
EC50 (Troponin, cardiac muscle): > 71.5 µM (inactive)

COc1cc(OC)cc(-c2oc(=O)c3cc(OC)c(OC)cc3c2C(F)(F)F)c1
AC50 [13]: 12.8 µM (active)

CCN(CC)S(=O)(=O)c1cccc(C(=O)N/N=C/c2ccc([N+](=O)[O-])o2)c1
EC50 [14]: 0.218 µM (active)
EC50 [15]: 13.3 µM (active)
AC50 [13]: 14.1 µM (active)

CN(C(=O)C(Cl)Cl)c1ccc(OC(=O)c2ccco2)cc1 [DILOXANIDE FUROATE]
AC50 [10]: 13.9 µM (active)
EC50 (Protein RecA): 10.3 µM (active)
AC50 (Cytochrome P450 3A4): inconclusive
